Key:
[1] = test system: rapamycin-induced FKBP–FRB interaction within HEK293 cells; test: NanoBiT luciferase structural complementation assay of rapamycin-induced FKBP–FRB interaction; assay type: cell-based, human; conditions: HEK293 co-transfected with FRB-LgBit and FKBP-SmBiT, 200 nM rapamycin, RLU for 60 min, qualitative; for peptide concentration inhibiting rapamycin-induced FKBP–FRB interaction: peptide added with rapamycin plus booster after 30 min, at least five determinations in triplicates
Procedure: The protein complementation assay technology used herein, NanoBiT® (Promega, Madison, WI, USA), was commercially designed to investigate inducible PPI under in vivo cellular conditions, allowing the analyses of distinctive molecules that, introduced within cells, can modify inducible PPI [58]. All experimental procedures were performed according to the manufacturer’s recommendations. Briefly, transient transfections were performed with NanoBiT® PPI Control Pair FKBP–FRB (Promega, Madison, WI, USA; catalog number N2016), containing the FRB-LgBit and FKBP-SmBiT vectors (NanoBiT® PPI Control Pair FKBP, FRB; catalog number N2016, Promega, Madison, WI, USA). Plasmids were co-transfected into HEK293 cells using FuGENE® 6 Transfection Reagent (Promega, Madison, WI, USA), according to the recommendations of the manufacturers. Cells transfected in the absence of DNA were the negative controls of the experiments, whereas the green fluorescent protein expressing pEGFP plasmid (Clontech, Mountain View, CA, USA; 100 ng) was used to evaluate transfections efficiencies; after 30 h of transfection, the pEGFP expression was easily assessed by fluorescent microscopy (data not shown).
HEK293 cells (approximately 10^4) cultured in a 96-well plate in DMEM high-glucose medium, supplemented with 10% FBS and 1% penicillin/streptomycin, were transiently co-transfected with 200 ng of both […] and FKBP-SmBiT vectors (NanoBiT® PPI Control Pair FKBP, FRB; catalog number N2016, Promega, Madison, WI, USA); this final plasmid concentration of 200 ng was defined previously testing different plasmid concentrations, as shown in Supplemental Figure S1A. The transfected cells were incubated in Opti-MEM® I Reduced Serum Medium culture medium (Gibco, Gaithersburg, MD, USA) for 2 h and then treated with 200 nM of rapamycin (BPSBioscience, CAS 53123-88-9, San Diego, CA, USA) diluted in Opti-MEM®/0.01% DMSO (Gibco, Gaithersburg, MD, USA; this rapamycin concentration of 200 nM was defined previously testing different concentrations, as shown in Supplemental Figure S1B). […] Graphs of RLU versus time were plotted by GraphPad Prism (GraphPad, San Diego, CA, USA). Control experiments were conducted using VFD10 and VFD7 without cpp covalently bound, in addition to cpp alone (Supplemental Figure S2).

[2] = test system: Atg5^+/+ mouse embryonic fibroblasts cells (MEF); test: Cell viability (MTT) after hypoxia-reoxygenation, Atg5+/+ MEF; assay type: cell-based; conditions: 1 µM peptide from 30 min before ischemia with boosters, 3 h hypoxia, 3 h reoxygenation; n = 3 independent experiments; vs. cpp
Procedure: (§1) These experiments were performed to evaluate the possible pharmacological application of VFD7-cpp and additional selected peptides on cell viability, following an ischemic challenge. These experiments also contributed to investigate the possible biological significance of InPeps for cell viability following hypoxia-reoxygenation. Therefore, herein the effect of peptides was evaluated in wild type mouse embryonic fibroblasts cells (MEF) expressing Atg5 (Atg5^+/+) and in the MEF missing autophagy pathway due to the lack of Atg5 (Atg5^−/−); Atg5 is indispensable in both canonical and non-canonical autophagy. Atg5^+/+ and Atg5^−/− MEF were cultured in a 96-well plate in DMEM high-glucose medium supplemented with 10% FBS and 1% penicillin/streptomycin, as previously described. […] After the protocol, cell viability was measured by using tetrazolium salt 3-(4,5-Dimethylthiazol 2-yl)-2,5-diphenyltetrazolium bromide (MTT) assay; these assays measure the mitochondrial metabolic rate and indirectly reflect the viable cell numbers, which are the most commonly used method to evaluate the effect of compounds on cell viability on cultured cells. […]

[3] = test system: autophagy-deficient Atg5^−/− MEF cells; test: Cell viability (MTT) after hypoxia-reoxygenation, Atg5-/- MEF; assay type: cell-based, mouse; conditions: 1 µM peptide from 30 min before ischemia with boosters, 3 h hypoxia, 3 h reoxygenation; n = 3 independent experiments
Procedure: as §1

[4] = test system: PPI between cytosolic brain proteins and 14-3-3 epsilon; conditions: surface plasmon resonance; cited from earlier work
Procedure: (§2) VFD10 and VFD7 (10–50 µM) were shown by surface plasmon resonance to inhibit PPI between cytosolic brain proteins and both calmodulin (CaM) and 14-3-3 epsilon. VFD7 (5–20 µM) introduced into the HEK293 cells by means of transient membra ...

[5] = test system: PPI between cytosolic brain proteins and calmodulin (CaM); conditions: surface plasmon resonance; cited from earlier work
Procedure: as §2

[6] = after 30 min of internalization into Chinese hamster ovarian cells; random control peptide; cited from earlier work
Procedure: Hundreds of InPeps have been described from the most diverse sources, including plants, yeast, fish, and mammals. Despite of the strong evidence that InPeps are natural constituents of the cells, the expected short half-life of peptides within cells full of peptidases contests their stability and biological significance. […] For example, after 30 min of internalization into Chinese hamster ovarian cells, the ...

HEK293 cells = conditions: introduced into HEK293 cells by transient membrane permeabilization with CHAPS; cited from earlier work
Procedure: as §2

[7] = test system: thimet oligopeptidase and CaM; conditions: in vitro surface plasmon resonance; cited from earlier work

## EVELLYGRKKKRRQRRR [EVE5-cpp, derived from VFD5-cpp, D to E]
[1]
  effect on rapamycin-induced FKBP–FRB interaction (in words): unable to alter rapamycin-induced FKBP–FRB interactions

## DVELLYGRKKRRQRRR [VFD5-cpp, N-terminally shortened VFD7-cpp derivative]
[1]
  effect on rapamycin-induced FKBP–FRB interaction (in words): reduced potencies compared to VFD6-cpp or VFD7-cpp
  peptide concentration inhibiting rapamycin-induced FKBP–FRB interaction: 500 nM

## YGRKKKRRQRRR [cpp, cell-penetrating peptide used alone as control, reference compound]
[1]
  effect on rapamycin-induced FKBP–FRB interaction (in words): have no effect

## AVELLYGRKKKRRQRRR [AVE5-cpp, derived from VFD5-cpp, D to A]
[1]
  effect on rapamycin-induced FKBP–FRB interaction (in words): unable to alter rapamycin-induced FKBP–FRB interactions

## VFDVELLKLEYGRKKKRRQRRR [VFD10-cpp, VFD10 covalently coupled to cpp at C-terminus]
[1]
  effect on rapamycin-induced FKBP–FRB interaction (in words): unable to alter rapamycin-induced FKBP–FRB interactions

## FDVELLYGRKKKRRQRRR [VFD6-cpp, FDVELL (VFD6) covalently coupled to cpp]
[1]
  peptide concentration inhibiting rapamycin-induced FKBP–FRB interaction: 1 to 500 nM
[2]
  cell viability after hypoxia-reoxygenation (MTT): increase cell viability
[3]
  cell viability after hypoxia-reoxygenation (MTT): but not on autophagy-deficient Atg5^−/− MEF cells

## VELLYGRKKRRQRRR [VFD4-cpp, N-terminally shortened VFD7-cpp derivative]
[1]
  effect on rapamycin-induced FKBP–FRB interaction (in words): reduced potencies compared to VFD6-cpp or VFD7-cpp
  peptide concentration inhibiting rapamycin-induced FKBP–FRB interaction: 500 nM

## VFDVELLKLE [VFD10, InPep … derived from FKBP12]
[1]
  effect on rapamycin-induced FKBP–FRB interaction (in words): have no effect
[4]
  peptide concentration shown to inhibit PPI with 14-3-3 epsilon: 10 to 50 µM
[5]
  peptide concentration shown to inhibit PPI with calmodulin: 10 to 50 µM

## VNMVPVGWASFR [random peptide used as the control in an earlier study]
[6]
  peptide recovered after internalization: 100%

## VFDVELL [VFD7, InPep VFDVELL derived from FKBP12]
[1]
  effect on rapamycin-induced FKBP–FRB interaction (in words): have no effect
HEK293 cells
  peptide concentration shown to increase cytosolic Ca2+ concentrations: 5 to 20 µM
[4]
  peptide concentration shown to inhibit PPI with 14-3-3 epsilon: 10 to 50 µM
[5]
  peptide concentration shown to inhibit PPI with calmodulin: 10 to 50 µM
[7]
  effect on thimet oligopeptidase–CaM interaction (in words): inhibits the interaction but does not disrupt the association

## VFEVELLYGRKKKRRQRRR [VFE7-cpp, VFD7-cpp with D substituted to E]
[1]
  effect on rapamycin-induced FKBP–FRB interaction (in words): unable to alter rapamycin-induced FKBP–FRB interactions

## VFAVELLYGRKKKRRQRRR [VFA7-cpp, VFD7-cpp with D substituted to A]
[1]
  effect on rapamycin-induced FKBP–FRB interaction (in words): unable to alter rapamycin-induced FKBP–FRB interactions
